Here are results for 31 molecules from article PMC4225773 (Bioorganic & medicinal chemistry letters, 2014).

In brackets after ≈: the same amount, converted by molar mass. Like-named read-outs stand apart in the source and are kept apart here. Marks after values point to notes of the source that are not given here.

The subject of data set [1] is Intra-macrophage Amastigote Stage of L. donovani.
A further data set in a line: in vitro. Particulars: human.
The test system of data set [2] is promastigote stage of L. donovani. The data set can be described thus: Alamar blue. (In general: Resazurin is reduced to fluorescent resorufin, in cell work by metabolically active cells.)
A further data set deals with HDAC6. Particulars: cited from earlier work; for IC50: read-out: HDAC6 IC50, NI = No Inhibition at maximum tested concentration of 10 µM (percentage inhibition < 20%); for HDAC6 % inhibition at 10 µM: given if the IC50 was above 10 µM.
The subject of the next data set is HDAC8. The conditions noted are these: read-out: HDAC8 IC50; NI = No Inhibition at maximum tested concentration of 10 µM (percentage inhibition < 20%); cited from earlier work.
A short description of data set [3]: Cytotoxicity to uninfected THP1 macrophage cells. Particulars: human.
The test system of data set [4] is Intra-macrophage Amastigote Stage of L. donovani. Kind of data set: Amastigote-macrophage assay. The conditions noted are these: for Cytotoxic activity against intra-macrophage amastigote (in words): THP1 host cells, 3HP values in Table S1 (not available); for Potency enhancement, intra-macrophage amastigote relative to axenic amastigote: comparing Tables 1 and 2.

For data set [5], the system named is axenic amastigote of L. donovani. The data set can be described thus: Alamar blue. It is filed as cell-based.
The mark [6] stands for this setting: L. donovani promastigote, maximum concentration tested 40 µg/mL.
The mark [7] stands for this setting: uninfected THP1 macrophage cells.
Setting [8] is: L. donovani axenic amastigote, maximum tested concentration 40 µg/mL.

For `C[C@@H]1[C@H](O)[C@@H](C)/C=C/C=C/C=C/C=C/C=C/C=C/C=C/[C@H](O[C@@H]2O[C@H](C)[C@@H](O)[C@H](N)[C@@H]2O)C[C@@H]2O[C@](O)(C[C@@H](O)C[C@@H](O)[C@H](O)CC[C@@H](O)C[C@@H](O)CC(=O)O[C@H]1C)C[C@H](O)[C@H]2C(=O)O` [Amphotericin B], the “Cytotoxic activity against intra-macrophage amastigote (in words)” value (“Cytotoxic activity” for short) in data set [1] is reported as “potently cytotoxic”. Further, the concentration for half-maximal inhibition (IC50) in the data set “in vitro” is greater than 10 µg/mL; in data set [2] (Leishmania donovani, read-out: Promastigote IC50), 0.4 µg/mL (≈ 0.433 µM).

Turning to `Oc1cccnc1O` [Compound 1a], the IC50 in the data set with HDAC6 and with HDAC8 was greater than 10000 nM throughout. In addition, the “Cytotoxicity to promastigote stage (in words)” value in data set [2] (setting [6]) was “inactive”.

In the case of `Oc1ccc[nH]c1=S` [Compound 1b], the IC50 in the data set with HDAC6 was 681 ± 110 nM; with HDAC8, 3680 ± 1200 nM; in data set [3] (setting [7]), greater than 10 µg/mL. Moreover, the “Cytotoxicity to promastigote stage (in words)” value in data set [2] (setting [6]) is listed as “weakly cytotoxic”.

With `O=c1c(O)cccn1Cc1ccccc1` [Compound 2a], the IC50 in the data set with HDAC6 and in the data set on HDAC8 was greater than 10000 nM throughout.

For the molecule `Oc1cccn(Cc2ccccc2)c1=S` [Compound 2b], the IC50 with HDAC6 is 457 ± 27 nM; in the data set with HDAC8, 1270 ± 200 nM; in data set [3] (setting [7]), greater than 10 µg/mL.

For `O=c1c(O)cccn1Cc1ccc(-c2ccccc2)cc1` [Compound 3a], the IC50 in the data set with HDAC6 and in the data set with HDAC8 was greater than 10000 nM each time. Further, the “Cytotoxic activity” value in data set [4] was “moderate to good cytotoxic activities”.

In the case of `Oc1cccn(Cc2ccc(-c3ccccc3)cc2)c1=S` [Compound 3b], the IC50 with HDAC6 is 847 ± 188 nM; with HDAC8, 4280 ± 1550 nM; in data set [3] (setting [7]), greater than 10 µg/mL. The “Potency enhancement, intra-macrophage amastigote relative to axenic amastigote” value in data set [4] was 5- to 25 fold.

As for `N#Cc1ccc(-c2ccc(Cn3cccc(O)c3=O)cc2)cc1` [Compound 4a], the “Cytotoxicity to axenic amastigote (in words)” value in data set [5] (setting [8]) was “about equipotent to both stages of L. donovani”. In addition, the IC50 in the data set on HDAC6 and with HDAC8 was greater than 10000 nM in each case. The “Cytotoxic activity” value in data set [4] is listed as “moderately active”.

Regarding `N#Cc1ccc(-c2ccc(Cn3cccc(O)c3=S)cc2)cc1` [Compound 4b], the IC50 is 957 ± 159 nM in the data set with HDAC6, 2080 ± 459 nM in the data set with HDAC8 and greater than 10 µg/mL in data set [3] (setting [7]). In data set [4], the “Potency enhancement, intra-macrophage amastigote relative to axenic amastigote” value is on record as 5- to 25 fold.

On to `N#Cc1cccc(-c2ccc(Cn3cccc(O)c3=O)cc2)c1` [Compound 5a], for which the IC50 in the data set on HDAC6 and with HDAC8 was greater than 10000 nM throughout. Besides, the “Cytotoxic activity” value in data set [4] was “moderate to good cytotoxic activities”.

Take `N#Cc1cccc(-c2ccc(Cn3cccc(O)c3=S)cc2)c1` [Compound 5b]: the “HDAC6 % inhibition at 10 µM” value in the data set with HDAC6 is 44% ^†. Besides, the values for the IC50 (with HDAC8; in data set [3] (setting [7])) were 1700 ± 717 nM and greater than 10 µg/mL, respectively.

Consider `N#Cc1ccccc1-c1ccc(Cn2cccc(O)c2=O)cc1` [Compound 6a], for which the IC50 with HDAC6 and in the data set on HDAC8 was greater than 10000 nM in each case.

Regarding `N#Cc1ccccc1-c1ccc(Cn2cccc(O)c2=S)cc1` [Compound 6b], the concentration for half-maximal inhibition (IC50) was 372 ± 35 nM in the data set on HDAC6, 1910 ± 771 nM in the data set on HDAC8 and greater than 10 µg/mL in data set [3] (setting [7]). The “Cytotoxic activity” value in data set [4] is “inactive”.

Regarding `Cc1ccc(-c2ccc(Cn3cccc(O)c3=O)cc2)cc1` [Compound 7a], the IC50 in the data set on HDAC6 and with HDAC8 was greater than 10000 nM each time.

`Cc1ccc(-c2ccc(Cn3cccc(O)c3=S)cc2)cc1` [Compound 7b]: the IC50 in the data set with HDAC6 is 454 ± 42 nM; with HDAC8, 800 ± 304 nM; in data set [3] (setting [7]) it was greater than 10 µg/mL.

With `Cc1cccc(-c2ccc(Cn3cccc(O)c3=O)cc2)c1` [Compound 8a], the IC50 in the data set on HDAC6 and in the data set with HDAC8 was greater than 10000 nM in each case.

As to `Cc1cccc(-c2ccc(Cn3cccc(O)c3=S)cc2)c1` [Compound 8b], the IC50 with HDAC6 is 812 ± 286 nM; in the data set on HDAC8, 2500 ± 1180 nM; in data set [3] (setting [7]), greater than 10 µg/mL. The “Cytotoxic activity” value in data set [4] is “inactive”.

For `Cc1ccccc1-c1ccc(Cn2cccc(O)c2=O)cc1` [Compound 9a], the IC50 in the data set with HDAC6 and with HDAC8 was greater than 10000 nM in each case.

As for `Cc1ccccc1-c1ccc(Cn2cccc(O)c2=S)cc1` [Compound 9b], the IC50 is 306 ± 69 nM in the data set with HDAC6, 3100 ± 1650 nM in the data set with HDAC8 and greater than 10 µg/mL in data set [3] (setting [7]).

Consider `CN(C)c1ccc(-c2ccc(Cn3cccc(O)c3=O)cc2)cc1` [Compound 10a], for which the “Cytotoxicity to axenic amastigote (in words)” value in data set [5] (setting [8]) is “about equipotent to both stages of L. donovani”. The IC50 in the data set with HDAC6 and with HDAC8 was greater than 10000 nM each time.

Regarding `CN(C)c1ccc(-c2ccc(Cn3cccc(O)c3=S)cc2)cc1` [Compound 10b], the half-maximal inhibitory concentration (IC50) was greater than 10000 nM in the data set with HDAC6, 2860 ± 944 nM in the data set with HDAC8 and greater than 10 µg/mL in data set [3] (setting [7]). The “Potency enhancement, intra-macrophage amastigote relative to axenic amastigote” value in data set [4] was 5- to 25 fold.

As to `CN(C)c1ccc(-c2ccc(Cn3cccc(O)c3=O)cc2)cn1` [Compound 11a], the IC50 in the data set on HDAC6 and with HDAC8 was greater than 10000 nM in each case.

Take `CN(C)c1ccc(-c2ccc(Cn3cccc(O)c3=S)cc2)cn1` [Compound 11b]: the IC50 was 2390 ± 458 nM in the data set with HDAC6, greater than 10000 nM in the data set on HDAC8 and greater than 10 µg/mL in data set [3] (setting [7]).

Consider `O=c1c(O)cccn1Cc1cn(-c2ccccc2)nn1` [Compound 12a], for which the IC50 in the data set on HDAC6 and with HDAC8 was greater than 10000 nM each time.

`Oc1cccn(Cc2cn(-c3ccccc3)nn2)c1=S` [Compound 12b]: the “HDAC6 % inhibition at 10 µM” value with HDAC6 is 41% ^†. The IC50 with HDAC8 was 1570 ± 1070 nM; in data set [3] (setting [7]) it was greater than 10 µg/mL.

`CN(C)c1ccc(-n2cc(Cn3cccc(O)c3=O)nn2)cc1` [Compound 13a]: the IC50 with HDAC6 and in the data set with HDAC8 was greater than 10000 nM each time. In data set [4], the “Cytotoxic activity” value is given as “moderate to good cytotoxic activities”.

On to `CN(C)c1ccc(-n2cc(Cn3cccc(O)c3=S)nn2)cc1` [Compound 13b], for which the concentration for half-maximal inhibition (IC50) in the data set with HDAC6 was 1020 ± 99 nM; in the data set on HDAC8, 1870 ± 723 nM; in data set [3] (setting [7]) it was greater than 10 µg/mL.

`COc1ccc(Cn2ccc3ccc(C(=O)NO)cc32)cc1` [PCI-34051, reference compound] displayed an IC50 in data set [3] greater than 10 µg/mL. Moreover, the “Cytotoxic activity” value in data set [4] was “inactive”. Further, in data set [2] (setting [6]), the “Cytotoxicity to promastigote stage (in words)” value is reported as “minimal effect”.

On to `N=C(N)c1ccc(OCCCCCOc2ccc(C(=N)N)cc2)cc1` [Pentamidine, pentamidine], for which the “Cytotoxic activity” value in data set [1] is “potently cytotoxic”. In addition, the IC50 in the data set “in vitro” was greater than 10 µg/mL.

`O=C(CCCCCCC(=O)Nc1ccccc1)NO` [SAHA, suberoylanilide hydroxamic acid, reference compound]: the “Cytotoxicity to axenic amastigote (in words)” value in data set [5] is recorded as “non-toxic”. For the same molecule, the “Cytotoxicity to promastigote stage (in words)” value in data set [2] was “minimal effect”.

For the molecule `CN1CCc2c(c3ccccc3n2Cc2ccc(C(=O)NO)cc2)C1` [Tubastatin A, reference compound], the IC50 in data set [3] (setting [7]) was greater than 10 µg/mL.

Usually IC50 stands for the concentration that gives 50% inhibition.
